Measurements reported in patent publication US20240189312A1, “COMPOSITION FOR TREATING ACUTE BRAIN INJURY OR NEURODEGENERATIVE DISEASE, METHOD OF MAKING, AND USE THEREOF” (priority 2022, published 2024).
Entries after “also recorded” stand apart in the source; their conditions may differ.

Experiments:
[1] = target: CYP46A (Homo sapiens, UniProt Q9Y6A2); settings: cited from earlier work
[2] = test system: MCAO induced ischemic brain injury; experiment: MCAO ischemic stroke model, TTC staining; type: in vivo, mice; settings: ICV 40 μM stock, 1 μl, 3 h before 45 min MCAO, TTC at 24 h
[3] = test system: 5XFAD mice; experiment: Alzheimer's disease model in 5XFAD mice; settings: 5XFAD test mice
Procedure: 5XFAD mice are obtained. 5XFAD transgenic mice express 5 human familial Alzheimer's disease (FAD) mutants in amyloid-beta precursor protein (APP) and presenilin 1 (PS1) driven by the Thy1 promoter. […] Experimental 5XFAD mice are obtained by crossing heterozygous transgenic mice with C57BL/6 wild-type breeders. Wild-type littermates are used as controls and randomly allotted to each experiment. Male mice are used in all experiments. All mice are housed in a standard animal facility with a 12 h alternating light/dark cycle.
Control mice are administered a placebo.
A Barns maze protocol is performed. Briefly, the apparatus is a revolvable white acrylic disc elevated from the floor with 18 holes equally spaced along the perimeter of the circle and positioned in a brightly light. One hole is selected as the escape target hole, and a dark escape chamber is placed under the target hole consistent for each trial. Mice are allowed to freely explore on the platform for 5 min without the escape chamber, and habituated to the escape chamber for 2 min on two consecutive days. In the training phase, a session of 2 trials is performed by each mouse. Each mouse is covered under a nontransparent cylinder placed in the center of the maze. After 15 s, the cylinder is gently removed to allow mouse to explore the maze for 180 s until the target hole is found. […] The maze and the escape chamber are wiped with 70% ethanol. The mouse is identified to find the target chamber when the back of the mice crossed the target hole. The mouse is considered to have entered the target chamber if the entire body is on the platform. The primary latency that mice took to find the target hole is documented for each trial. Two trials per day are performed for eight days. For the probe test, memory retention is assessed 5 days after the last training trial. The duration of the probe trial is 90 s. […] The position of the target hole is the same as that in the training period. The primary latency to find the target hole and time in the target quadrant is analyzed by Anymaze software.
A T maze protocol is performed. Briefly, before performing the task, the diet of mice is restricted daily to hold 80% to 85% of their primary body weight throughout the task. The T maze apparatus is placed in a quiet room, and light intensity is held at a constant level. During the training, a forced choice is followed by a free choice for each trial. In the forced-choice phase, a food pellet is placed in either the left or right choice arm. The door to the choice arm with food pellet is opened, while the other choice arm is closed. The mouse is allowed to consume the pellet. When the pellet is consumed, the mouse is returned to the start arm. After the forced choice is completed, the free choice is initialized. During the free choice, all doors are open; the mouse is allowed to freely enter one of two arms. If the mouse entered the same arm as in the forced-choice phase, the trial is considered to result in an “error,” and the pellet is removed. If the mouse entered the opposite arm as in the forced-choice phase, the trial is considered to have a “correct” result, and the mouse is rewarded with a food pellet. Following each session, the apparatus is cleaned with 70% ethanol. Six consecutive trials are performed in a session per day. The percentage of correct responses is calculated in each session.
Motor activity and anxiety is studied in the open field test. […] The mouse activity is monitored under an infrared camera for 5 min.

[4] = target: CYP46A1 (Homo sapiens, UniProt Q9Y6A2); settings: cited from earlier work
CYP46A1, sequence (Q9Y6A2 whole entry, species assumed): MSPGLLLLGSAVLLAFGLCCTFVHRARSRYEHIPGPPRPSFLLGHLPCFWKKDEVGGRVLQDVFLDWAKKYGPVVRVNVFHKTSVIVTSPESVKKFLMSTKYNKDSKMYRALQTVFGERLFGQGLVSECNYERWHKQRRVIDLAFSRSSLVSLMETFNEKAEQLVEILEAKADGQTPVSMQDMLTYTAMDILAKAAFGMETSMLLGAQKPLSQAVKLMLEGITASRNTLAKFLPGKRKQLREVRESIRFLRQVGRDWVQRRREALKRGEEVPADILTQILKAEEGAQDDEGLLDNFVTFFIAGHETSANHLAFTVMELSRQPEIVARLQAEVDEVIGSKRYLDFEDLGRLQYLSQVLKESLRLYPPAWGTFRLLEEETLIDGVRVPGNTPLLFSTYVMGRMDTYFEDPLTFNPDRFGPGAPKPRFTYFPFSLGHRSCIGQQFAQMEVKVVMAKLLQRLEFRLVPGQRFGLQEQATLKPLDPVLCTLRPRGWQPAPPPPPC

[5] = test system: primary cultured mouse cortical neurons; experiment: NMDA toxicity (neuronal loss, LDH release); type: cell-based; settings: MK-801 10 μM
Procedure: (§1) Cultures of mouse primary cortical neurons were prepared as described previously and modified [Leng T D, Lin J, Sun H W, Zeng Z, O'Bryant Z, Inoue K, et al. Local anesthetic lidocaine inhibits TRPM7 current and TRPM7-mediated zinc toxicity. CNS Neurosci Ther 2015; 21: 32-9.]. The use of mice for neuronal cultures was approved by the Institutional Animal Care and Use Committee of Morehouse School of Medicine. Briefly, the brains of fetuses (embryonic day 16) were removed quickly from anesthetized pregnant Swiss mice and placed in cold Ca2+/Mg2+-free PBS. Cerebral cortices were dissected and incubated with 0.05% trypsin-EDTA for 10 min at 37° C., followed by trituration. Cells were plated in 35-mm poly-L-ornithine-coated culture dishes at a density of 1×10^6 cells. […]
(§2) LDH release was measured using a cytotoxicity detection kit (Cat. No. 11644793001, Roche Diagnostics) according to the manufacturer's instruction, as described in previous studies [Leng T D, Lin J, Sun H W, Zeng Z, O'Bryant Z, Inoue K, et al. Local anesthetic lidocaine inhibits TRPM7 current and TRPM7-mediated zinc toxicity. […] The absorbance at 492 and 620 nm was measured by spectrometer (SpectraMax Plus, Molecular devices, Sunnyvale, CA, USA). LDH release was determined based on subtracting absorbance at 620 nm from that at 492 nm.

[6] = test system: NMDA receptor; settings: cited from earlier work
[7] = test system: primary cultured mouse cortical neurons; experiment: OGD toxicity (neuronal loss, LDH release); type: cell-based; settings: MK-801
Procedure: as §1, §2

[8] = test system: select neurons; settings: cited from earlier work

CYP46A, sequence (Q9Y6A2 whole entry): as the sequence (Q9Y6A2 whole entry, species assumed) above

## S=C(NC1CCCCC1)N1CCC(c2cnc[nH]2)CC1 [thioperamide]
[1]
  affinity for CYP46A: nanomolar affinity

## Clc1ccccc1C(c1ccccc1)(c1ccccc1)n1ccnc1 [clotrimazole]
[1]
  affinity for CYP46A: nanomolar affinity

## C[C@@H](c1ncncc1F)[C@](O)(Cn1cncn1)c1ccc(F)cc1F [voriconazole]
[2]
  ischemic brain injury (infarction, TTC staining): reduces ischemic brain injury
[2]; listed as Vori
  ischemic brain injury (infarction, TTC staining): dramatically reduced ischemic brain injury; also recorded: protects against 45 min MCAO induced ischemic brain injury
[3]
  Aβ deposition: attenuate Aβ deposition
  cognitive functions: improve cognitive functions
  microgliosis: decrease microgliosis
  neuroinflammation: reduce neuroinflammation
  synapse loss and neuronal loss: reversed
[1]
  affinity for CYP46A: nanomolar affinity
[4]; at ˜1 M (so in the source)
  synthesis of 24S-HC in vitro: almost completely inhibit
[4]
  inhibitor of CYP46A1: potent inhibitor

## C[C@]12N[C@H](Cc3ccccc31)c1ccccc12 [MK-801, dizocilpine]
[5]
  inhibition of 24S-HC increased NMDA toxicity: completely inhibited
[5]; listed as MK801
  inhibition of 24S-HC increased NMDA toxicity: completely abolishes the toxicity of 24S-HC
[6]
  Aβ[1-42]-triggered excitotoxicity via the NMDA receptor: can be prevented
[7]
  inhibition of 24S-HC increased OGD toxicity: completely inhibited
[7]; listed as MK801
  inhibition of 24S-HC increased OGD toxicity: completely abolishes the toxicity of 24S-HC
[8]
  cytoplasmic vacuoles in select neurons: causes cytoplasmic vacuoles in select neurons

## N[C@@H]1C[C@H]1c1ccccc1 (racemic) [tranylcypromine]
[1]
  affinity for CYP46A: nanomolar affinity
